Reference: ChEMBL document CHEMBL5321264, “Proteomic Changes in Methicillin-Resistant Staphylococcus aureus Exposed to Cannabinoids” (2023)
≈ marks a conversion by molar mass, not a printed value. Calls of active or inactive are those of the source. The calls are words filed in the database; no cut-off is given here.

Columns and labels:
Staphylococcus aureus [1] = assay: Bactericidal activity against methicillin-resistant Staphylococcus aureus CC398 assessed as reduction in bacterial viability measured after 15 hrs by real-time microscopic analysis; format: functional
Staphylococcus aureus [2] = assay: Antibacterial activity against methicillin-resistant Staphylococcus aureus CC398 assessed as reduction in bacterial growth measured after 4 hrs by real-time microscopic analysis; format: functional
[3] = Selectivity ratio of MBC for bactericidal activity against methicillin-resistant Staphylococcus aureus CC398 to MIC for antibacterial activity against methicillin-resistant Staphylococcus aureus CC398; format: functional
Staphylococcus aureus [4] = assay: Potentiation of methicillin-induced antibacterial activity against methicillin-resistant Staphylococcus aureus CC398 assessed as ratio of methicillin MBC to MIC at 2.5 microg/ml; format: functional; settings: dose 2.5 µg/ml
Staphylococcus aureus [5] = assay: Potentiation of methicillin-induced antibacterial activity against methicillin-resistant Staphylococcus aureus CC398 assessed as methicillin MIC at 2.5 microg/ml; format: functional; settings: dose 2.5 µg/ml
Staphylococcus aureus [6] = assay: Potentiation of methicillin-induced antibacterial activity against methicillin-resistant Staphylococcus aureus CC398 assessed as methicillin MBC at 2.5 microg/ml; format: functional; settings: dose 2.5 µg/ml
Staphylococcus aureus [7] = assay: Potentiation of methicillin-induced antibacterial activity against methicillin-resistant Staphylococcus aureus CC398 assessed as reduction in methicillin MIC at 2.5 microg/ml relative to control; format: functional; parameters: scale not given: the % may be the effect or the level left; settings: dose 2.5 µg/ml
Staphylococcus aureus [8] = assay: Antibacterial activity against methicillin-resistant Staphylococcus aureus CC398 assessed as increase in cell density at 1.25 microg/ml by real-time microscopic analysis relative to control; format: functional; settings: dose 1.25 µg/ml; time 15 hrs
Staphylococcus aureus [9] = assay: Upregulation of ATP synthase subunit beta expression in methicillin-resistant Staphylococcus aureus CC398 in the presence of methicillin by gene ontology analysis; format: functional
Staphylococcus aureus [10] = assay: Upregulation of GTP-binding protein typeA expression in methicillin-resistant Staphylococcus aureus CC398 in the presence of methicillin by gene ontology analysis; format: functional
Staphylococcus aureus [11] = assay: Upregulation of proline-tRNA ligase expression in methicillin-resistant Staphylococcus aureus CC398 in the presence of methicillin by gene ontology analysis; format: functional
Staphylococcus aureus [12] = assay: Upregulation of elongation factor P expression in methicillin-resistant Staphylococcus aureus CC398 in the presence of methicillin by gene ontology analysis; format: functional
Staphylococcus aureus [13] = assay: Downregulation of isocitrate dehydrogenase expression in methicillin-resistant Staphylococcus aureus CC398 in the presence of methicillin by gene ontology analysis; format: functional
Staphylococcus aureus [14] = assay: Downregulation of succinate-CoA synthase expression in methicillin-resistant Staphylococcus aureus CC398 in the presence of methicillin by gene ontology analysis; format: functional
Staphylococcus aureus [15] = assay: Downregulation of phosphoglycerate kinase expression in methicillin-resistant Staphylococcus aureus CC398 in the presence of methicillin by gene ontology analysis; format: functional
Staphylococcus aureus [16] = assay: Antibacterial activity against methicillin-resistant Staphylococcus aureus CC398 assessed as inhibition of bacterial growth at higher concentration incubated for 15 hrs by real-time microscopic analysis; format: functional, organism-based
Staphylococcus aureus [17] = assay: Antibacterial activity against methicillin-resistant Staphylococcus aureus CC398 assessed as inhibition of bacterial growth at lower concentration incubated for 15 hrs by real-time microscopic analysis; format: functional, organism-based
Staphylococcus aureus [18] = assay: Upregulation of peptide chain release factor 1 expression in methicillin-resistant Staphylococcus aureus CC398 in the presence of methicillin; format: functional
Staphylococcus aureus [19] = assay: Upregulation of ATP synthase subunit B expression in methicillin-resistant Staphylococcus aureus CC398 in the presence of methicillin by gene ontology analysis; format: functional
Staphylococcus aureus [20] = assay: Upregulation of ATP synthase subunit alpha expression in methicillin-resistant Staphylococcus aureus CC398 in the presence of methicillin by gene ontology analysis; format: functional
Staphylococcus aureus [21] = assay: Downregulation of superoxide dismutase expression in methicillin-resistant Staphylococcus aureus CC398 in the presence of methicillin by gene ontology analysis; format: functional
Staphylococcus aureus [22] = assay: Upregulation of enolase expression in methicillin-resistant Staphylococcus aureus CC398 by gene ontology analysis; format: functional
Staphylococcus aureus [23] = assay: Downregulation of catalase expression in methicillin-resistant Staphylococcus aureus CC398 in the presence of methicillin by gene ontology analysis; format: functional
Staphylococcus aureus [24] = assay: Antibacterial activity against methicillin-resistant Staphylococcus aureus CC398 assessed as increase in cell density at 2.5 microg/ml measured after 15 hrs by real-time microscopic analysis relative to control; format: functional; settings: dose 2.5 µg/ml
Staphylococcus aureus [25] = assay: Upregulation of PBP2 protein expression in methicilin-resistant Staphylococcus aureus CC398 in the presence of methicillin by gene ontology analysis; format: functional
Staphylococcus aureus [26] = assay: Upregulation of GrpE protein expression in methicillin-resistant Staphylococcus aureus CC398 in the presence of methicillin by gene ontology analysis; format: functional
Staphylococcus aureus [27] = assay: Downregulation of aminoacyl-tRNA-synthetase expression in methicillin-resistant Staphylococcus aureus CC398 in the presence of methicillin by gene ontology analysis; format: functional
Staphylococcus aureus [28] = assay: Downregulation of Threonine synthase expression in methicillin-resistant Staphylococcus aureus CC398 in the presence of methicillin by gene ontology analysis; format: functional
Staphylococcus aureus [29] = assay: Downregulation of cysteine synthase expression in methicillin-resistant Staphylococcus aureus CC398 in the presence of methicillin by gene ontology analysis; format: functional
Staphylococcus aureus [30] = assay: Downregulation of serine hydroxy methyltransferase expression in methicillin-resistant Staphylococcus aureus CC398 in the presence of methicillin by gene ontology analysis; format: functional
Staphylococcus aureus [31] = assay: Downregulation of Carbamoyl-phosphate synthase small chain expression in methicillin-resistant Staphylococcus aureus CC398 in the presence of methicillin by gene ontology analysis; format: functional
Staphylococcus aureus [32] = assay: Upregulation of ATP-dependent protease ATPase subunit […] expression in methicillin-resistant Staphylococcus aureus CC398 in the presence of methicillin by gene ontology analysis; format: functional
Staphylococcus aureus [33] = assay: Downregulation of pyruvate kinase expression in methicillin-resistant Staphylococcus aureus CC398 in the presence of methicillin by gene ontology analysis; format: functional
Staphylococcus aureus [34] = assay: Antibacterial activity against methicillin-resistant Staphylococcus aureus CC398 assessed as increase in cell density at 5 microg/ml measured after 15 hrs by real-time microscopic analysis relative to control; format: functional; settings: dose 5 µg/ml
Staphylococcus aureus [35] = assay: Downregulation of fructose-1,6-bisphosphate aldolase expression in methicillin-resistant Staphylococcus aureus CC398 in the presence of methicillin by gene ontology analysis; format: functional
Staphylococcus aureus [36] = assay: Downregulation of 2,3-bisphosphoglycerate-independent phosphoglycerate mutase expression in methicillin-resistant Staphylococcus aureus CC398 in the presence of methicillin by gene ontology analysis; format: functional
Staphylococcus aureus [37] = assay: Downregulation of elongation factor Tu expression in methicillin-resistant Staphylococcus aureus CC398 in the presence of methicillin by gene ontology analysis; format: functional
Staphylococcus aureus [38] = assay: Downregulation of elongation factor G expression in methicillin-resistant Staphylococcus aureus CC398 in the presence of methicillin by gene ontology analysis; format: functional
Staphylococcus aureus [39] = assay: Downregulation of arginine-tRNA-synthetase expression in methicillin-resistant Staphylococcus aureus CC398 in the presence of methicillin by gene ontology analysis; format: functional
Staphylococcus aureus [40] = assay: Potentiation of methicillin-induced antibacterial activity against methicillin-resistant Staphylococcus aureus CC398 assessed as ratio of methicillin MBC to MIC at 7.5 microg/ml; format: functional; settings: dose 7.5 µg/ml
Staphylococcus aureus [41] = assay: Potentiation of methicillin-induced antibacterial activity against methicillin-resistant Staphylococcus aureus CC398 assessed as methicillin MIC at 7.5 microg/ml; format: functional; settings: dose 7.5 µg/ml
Staphylococcus aureus [42] = assay: Potentiation of methicillin-induced antibacterial activity against methicillin-resistant Staphylococcus aureus CC398 assessed as methicillin MBC at 7.5 microg/ml; format: functional; settings: dose 7.5 µg/ml
Staphylococcus aureus [43] = assay: Upregulation of DNA-directed RNA polymerase subunit omega expression in Staphylococcus aureus CC398 in the presence of methicillin by gene ontology analysis; format: functional
Staphylococcus aureus [44] = assay: Upregulation of SepF expression in Staphylococcus aureus CC398 in the presence of methicillin by gene ontology analysis; format: functional
Staphylococcus aureus [45] = assay: Downregulation of isoleucine-tRNA-synthetase expression in methicillin-resistant Staphylococcus aureus CC398 in the presence of methicillin by gene ontology analysis; format: functional
Staphylococcus aureus [46] = assay: Downregulation of valine-tRNA-synthetase expression in methicillin-resistant Staphylococcus aureus CC398 in the presence of methicillin by gene ontology analysis; format: functional
Staphylococcus aureus [47] = assay: Antibacterial activity against methicillin-resistant Staphylococcus aureus CC398 assessed as increase in cell density at 1 microg/ml measured after 15 hrs by real-time microscopic analysis relative to control; format: functional; settings: dose 1 µg/ml
Staphylococcus aureus [48] = assay: Antibacterial activity against methicillin-resistant Staphylococcus aureus CC398 assessed as increase in cell growth rate by measuring maximal response at 1 microg/ml after 15 hrs by real-time microscopic analysis relative to control; format: functional; settings: dose 1 µg/ml
Staphylococcus aureus [49] = assay: Upregulation of ATP synthase subunit beta expression in Staphylococcus aureus CC398 by gene ontology analysis; format: functional
Staphylococcus aureus [50] = assay: Upregulation of ATP synthase subunit b expression in Staphylococcus aureus CC398 by gene ontology analysis; format: functional
Staphylococcus aureus [51] = assay: Upregulation of ATP synthase subunit alpha expression in Staphylococcus aureus CC398 by gene ontology analysis; format: functional
Staphylococcus aureus [52] = assay: Upregulation of PBP2 protein expression in Staphylococcus aureus CC398 by gene ontology analysis; format: functional

| SMILES | MBC (Staphylococcus aureus [1]) [µg/mL] | MIC (Staphylococcus aureus [2]) [µg/mL] | Ratio [3] | Ratio (Staphylococcus aureus [4]) | MBC (Staphylococcus aureus [5]) [µg/mL] | MIC (Staphylococcus aureus [6]) [µg/mL] | Activity (Staphylococcus aureus [7]) [%] | Activity (Staphylococcus aureus [9]) | Activity (Staphylococcus aureus [15]) | Activity (Staphylococcus aureus [16]) | Activity (Staphylococcus aureus [17]) | Activity (Staphylococcus aureus [19]) | Activity (Staphylococcus aureus [20]) | Activity (Staphylococcus aureus [21]) | Activity (Staphylococcus aureus [22]) | Activity (Staphylococcus aureus [23]) | Activity (Staphylococcus aureus [26]) | Activity (Staphylococcus aureus [33]) | also measured |
| --- | --- | --- | --- | --- | --- | --- | --- | --- | --- | --- | --- | --- | --- | --- | --- | --- | --- | --- | --- |
| C=C(C)[C@@H]1CCC(C)=C[C@H]1c1c(O)cc(CCCCC)cc1O [CANNABIDIOL] | 5 (≈ 15.9 µM) | 2.5 (≈ 7.95 µM) | 2 | 16 | 1 | 0.063 | 87.5 | Active | Active | Active | inactive | Active | Active | Active | Active | Active | – | – | Activity (Staphylococcus aureus [8]): 19%; Activity (Staphylococcus aureus [10]): Active; Activity (Staphylococcus aureus [11]): Active; Activity (Staphylococcus aureus [12]): Active; Activity (Staphylococcus aureus [13]): Active; Activity (Staphylococcus aureus [14]): Active; Activity (Staphylococcus aureus [18]): Active |
| CCCCCc1cc(O)c2c(c1)OC(C)(C)c1ccc(C)cc1-2 [CANNABINOL] | 7.5 (≈ 24.2 µM) | 2.5 (≈ 8.05 µM) | 3 | 16 | 1 | 0.063 | 87.5 | Active | Active | Active | inactive | Active | Active | Active | Active | Active | Active | Active | Activity (Staphylococcus aureus [24]): 29%; Activity (Staphylococcus aureus [25]): Active; Activity (Staphylococcus aureus [27]): Active; Activity (Staphylococcus aureus [28]): Active; Activity (Staphylococcus aureus [29]): Active; Activity (Staphylococcus aureus [30]): Active; Activity (Staphylococcus aureus [31]): Active; Activity (Staphylococcus aureus [32]): Active |
| CCCCCc1cc(O)c2c(c1)OC(C)(C)[C@@H]1CCC(C)=C[C@@H]21 [DRONABINOL] | 20 (≈ 63.6 µM) | 7.5 (≈ 23.8 µM) | 2.67 | – | – | – | 93.8 | Active | Active | Active | inactive | Active | Active | Active | Active | – | Active | Active | Activity (Staphylococcus aureus [34]): 45%; Activity (Staphylococcus aureus [35]): Active; Activity (Staphylococcus aureus [36]): Active; Activity (Staphylococcus aureus [37]): Active; Activity (Staphylococcus aureus [38]): Active; Activity (Staphylococcus aureus [39]): Active; Ratio (Staphylococcus aureus [40]): 8; MIC (Staphylococcus aureus [41]): 0.063 µg/mL; MBC (Staphylococcus aureus [42]): 0.5 µg/mL; Activity (Staphylococcus aureus [43]): Active; Activity (Staphylococcus aureus [44]): Active; Activity (Staphylococcus aureus [45]): Active; Activity (Staphylococcus aureus [46]): Active |
| COc1cccc(OC)c1C(=O)N[C@@H]1C(=O)N2[C@@H]1SC(C)(C)[C@@H]2C(=O)O [METHICILLIN] | 8 (≈ 21 µM) | 4 (≈ 10.5 µM) | – | – | – | – | – | – | – | – | – | – | – | – | – | – | – | – | Activity (Staphylococcus aureus [47]): 43%; Activity (Staphylococcus aureus [48]): 143%; Activity (Staphylococcus aureus [49]): Active; Activity (Staphylococcus aureus [50]): Active; Activity (Staphylococcus aureus [51]): Active; Activity (Staphylococcus aureus [52]): Active |
